In PubChem BioAssay AID179 (DTP/NCI, 2004):
Active and inactive are the calls of the source.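 How the source made its calls: active means compounds giving half or more protection of infected cells from virus-caused growth loss, again on retest; inactive means the rest.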

System: CEM cells HIV-1 protection, formazan growth assay
Assay: NCI AIDS Antiviral Assay
Conditions: for IC50: measured here: growth of uninfected CEM cells
Experimental: The ability of compounds to protect human CEM cells from HIV-1 infection is measured as a screen for new compounds capable of inhibiting the HIV virus. Five concentrations of drug were tested on uninfected and infected cells and cell growth was measured using a soluble formazan assay. […] Compounds that provided at least 50% protection were retested. Compounds that provided at least 50% protection on retest were listed as moderately active. Compounds that reproducibly provided 100% protection were listed as confirmed active. […] Note that the inability to provide protection could be due to toxicity.

Row | SMILES | EC50 [µM] | IC50 [µM] | outcome
1 | CN1CCOC1c1ccccc1O (stereo not drawn) | > 200 | > 200 | 
2 | Cn1c(N)nc(-c2ccc(Cl)cc2)c1SSc1c(-c2ccc(Cl)cc2)nc(N)n1C | > 200 | > 200 | 
3 | Cc1ccc(S(=O)(=O)C(C#N)c2nc3ccccc3nc2N2CCOCC2)cc1 (stereo not drawn) | > 16.6 | > 16.6 | 
4 | CC(C)(C)c1cc(CCC(=O)Nc2ccc(Cl)cc2)[nH]c(=S)n1 | > 513 | > 513 | 
5 | Cc1c2ccccc2nc(CS(=O)(=O)CCO)[n+]1[O-] | > 200 | > 200 | 
6 | CC1CC(Nc2ccc(Br)cc2)N(C(=O)c2ccc(Br)cc2)O1 (stereo not drawn) | > 200 | 17 | 
7 | N#CCCN(CCC#N)C(=O)c1cccc(C(=O)N(CCC#N)CCC#N)c1 |  |  | inactive
8 | O=C(NCCOC(=O)OCCNC(=O)NC1CCCCC1)NC1CCCCC1 | > 200 | > 200 | 
9 | Cc1ccc(Nc2nc(=O)[nH]c(=O)[nH]2)cc1N | > 200 | > 200 | 
10 | O=C(N/S(=N/S(=O)(=O)c1ccc(Br)cc1)C(Cl)(Cl)Cl)c1ccccc1 (stereo not drawn) | > 200 | > 200 | 
11 | CC1=C(C(=O)CC(=O)C(=O)Nc2cc(C)ccc2C)Sc2ccccc2N1 | > 10 | > 10 | 
12 | O=C1NC(=O)C(=Cc2ccc([N+](=O)[O-])cc2)C(=O)N1 | > 138 | > 138 | 
13 | N#CC(C#N)=CN1CCOCC1 | > 200 | > 200 | 
14 | Cc1ncc([N+](=O)[O-])n1CCNC(=O)CCCCn1ccnc1[N+](=O)[O-] | > 200 | > 200 | 
15 | CSc1n(CC(=O)OC(C)(C)C)nc[n+]1N | > 200 | > 200 | 
16 | Cc1nc2ccccc2c(C(=O)NO)[n+]1[O-] | > 200 | > 200 | 
17 | O=C1Nc2cccnc2NC2=C1CSC2 | > 200 | > 200 | 
18 | OC[C@@H]1C[C@H](F)[C@H](n2cnc3c(Cl)ncnc32)O1 | > 575 | 26.3 | 
19 | COc1c(I)c(OC)c2c(c1I)O[C@@H]1OCC[C@H]21 | > 501 | 240 | 
20 | CCC[CH2][Sn]1([CH2]CCC)[N](S(=O)(=O)c2ccc(C)cc2)c2ccccc2[N]1S(=O)(=O)c1ccc(C)cc1 | > 2 | 0.309 | 
21 | CN1CC(C)(C)C(=O)c2ccccc21 | > 200 | > 200 | 
22 | O=CN(c1ccccc1)c1c([N+](=O)[O-])cc([N+](=O)[O-])c2c1=NCN=2 | > 79.4 | > 79.4 | 

Row | SMILES | EC50 [µM] | IC50 [µM] | outcome
23 | O=C(CC(c1ccccc1)c1ccccc1)NCCCCN1CCCCCCC1 | > 200 | 12.9 | 
24 | C/C(CC(=O)Nc1ccc(C)c(C)c1)=N\NC(N)=O | > 692 | > 692 | 
25 | Cc1ccc(/C=C2\CCC/C(=C\c3ccc(O)c(CN4CCCCC4)c3)C2=O)cc1 | > 100 |  | 
26 | S=c1nn[nH]n1-c1ccccc1.[Zn+2] | > 2.57 | > 2.57 | 
27 | Cc1ccccc1N1C(N)=C(C#N)C(C#N)(C#N)C1c1ccccc1 (stereo not drawn) | > 200 | 12 | 
28 | Nn1c(SCc2nc3ccccc3[nH]2)nnc1-c1ccccc1 | > 200 | > 200 | 
29 | COc1ccc(NC(=O)C2=C(SC)C(=O)N=C2N)cc1 | > 100 | > 100 | 
30 | COC(=O)CN(CC1O[C@@H]2OC(C)(C)O[C@@H]2C1NC(C)=O)C(=O)OCc1ccccc1 (stereo partly drawn) | > 200 | > 200 | 
31 | COc1cc([N+](=O)[O-])c(OC)c2c(Nc3ccc(S(=O)(=O)O)c4cc(S(=O)(=O)O)cc(S(=O)(=O)O)c34)cc(C)nc12 | > 200 | > 200 | 
32 | Cn1c(=O)oc2cc(C(=S)N3CCCCC3)ccc21 | > 200 | > 200 | 
33 | Cc1ccc(S(=O)(=O)[C@@H](Cl)[C@H]2N=C(Cl)NN=C2c2ccccc2)cc1 | > 200 | 37.2 | 
34 | O=C(CNc1ccc([N+](=O)[O-])cc1)Nn1c(-c2ccccc2)nc2ccccc2c1=O | > 200 | 4.17 | 
35 | Nc1nc(CC2(O)CCCCC2)cc(-c2ccccc2)n1 | > 1.95 | > 1.95 | 
36 | COc1ccc(Nc2nnc(-c3nsc4ccccc34)s2)cc1 | > 21.4 | > 21.4 | 
37 | O=C(c1ccc(Cl)cc1Cl)N(C(=O)N1CCCCC1)c1ccccc1 | > 200 | > 200 | 
38 | Cc1ccc(NC(=O)/C(=N\NC(N)=O)c2c(O)c3ccccc3[nH]c2=O)cc1 | > 95.5 | > 95.5 | 
39 | C/C=C(\C1CC2c3[nH]c4ccccc4c3CCN2C(=O)C1C(=O)OCC)[Si](C)(C)C (stereo not drawn) | > 12.3 | > 12.3 | 
40 | O=c1oc2ccccc2c(O)c1Cc1cccc(Cc2c(O)c3ccccc3oc2=O)c1 |  |  | active
41 | CC(=O)c1c(-c2ccco2)c(C#N)c(=S)n(C2OC(CO)C(O)C(O)C2O)c1-c1ccccc1 (stereo not drawn) | > 200 | 75.9 | 
42 | Nc1nc(Nc2ccccc2)sc1O | > 200 | 195 | 
43 | N#C/C(=C/NC(=S)NCc1ccccc1)C(N)=O | > 200 | > 200 | 
44 | CC1CC(=O)N2CCCNC2=C1C#N (stereo not drawn) | > 200 | > 200 | 

Row | SMILES | EC50 [µM] | IC50 [µM] | outcome
45 | O=C(Cn1c(=O)ccn(C2OC(CO)C(O)C2F)c1=O)c1ccc(F)cc1 (stereo not drawn) | > 200 | > 200 | 
46 | COc1ccc(CCNC(=S)N/C=C(\C#N)S(=O)(=O)c2ccc(C)cc2)cc1OC | > 200 | > 200 | 
47 | COc1cccc(/C=C2\CCc3ccccc3C2=O)c1 | > 14.5 | > 14.5 | 
48 | N#Cc1c(/C=C/c2ccccc2)c2c([nH]c1=S)CCCCC2 | 339 | 501 | 
49 | C=C(C)C1CC=C(C)C(O)([C@@]2(O)C[C@H](C(=C)C)CC=C2C)C1 (stereo partly drawn) |  |  | inactive
50 | CCN(CC)CCOc1ccc(/C(C#N)=C/c2ccc(OCCO)cc2)cc1 | > 200 | 20.9 | 
51 | CN(C)CCNC(=O)c1cc([N+](=O)[O-])cn1C | > 200 | > 200 | 
52 | CC1=Nc2cc(C(=O)c3ccccc3)ccc2N=C(c2c(O)c3ccc4ccccc4c3oc2=O)C1 | > 20 | > 20 | 
53 | COc1cc(C(C#N)NNC(=O)c2ccccc2O)ccc1O (stereo not drawn) | > 5.75 | 0.427 | 
54 | CC1C(c2ccc(N(C)C)cc2)c2cc3c(cc2OC1N1CCCC1)OCO3 (stereo not drawn) | > 100 | 17 | 
55 | O=C(/C=C/c1ccc([N+](=O)[O-])cc1)c1ccc(NCc2nc3ccccc3[nH]2)cc1 | > 13.2 | > 13.2 | 
56 | C[CH2][Sn]([CH2]C)([S]CCS(=O)(=O)O)[S]CCS(=O)(=O)O (tested in a mixture with another compound) | > 200 | 3.16 | 
57 | O=C1C=C(O)c2ccccc2C1=O | > 200 | 120 | 
58 | CCC12CCCN3CCC4(C(=Nc5cc(OC)ccc54)CC1)C32 (stereo not drawn) |  |  | inactive
59 | N#C/C(=C\NC(=S)N=Nc1c(O)[nH]c2ccccc12)C(=O)c1ccc2ccccc2c1 | > 200 | 120 | 
60 | CCN(CC)c1ccc2c(c1)Oc1ccc(N(C(C)=O)c3ccccc3)cc1C21OC(=O)c2ccccc21 (stereo not drawn) | > 200 | 6.03 | 
61 | COC(=O)CCC1(C)C2CCC1/C(=N/O)C2 (stereo not drawn) | > 200 | > 200 | 
62 | CC1(c2ccccc2)CC(c2ccccc2)=NO1 (stereo not drawn) | > 57.5 | > 57.5 | 
63 | O=C(Nc1cccc2ccccc12)Oc1ccccc1C1CCCCC1 |  |  | inactive
64 | COc1ccc2nc(NC(=O)C(=O)C(C#N)c3ccc(CC#N)cc3)sc2c1 (stereo not drawn) |  |  | inactive
65 | O=[N+]([O-])c1ccccc1C=NC12CC3CC(CC(C3)C1)C2 | > 115 | > 115 | 
66 | CN(C)CCCNC(=O)c1cc(NC(=O)c2cc(NC(=O)c3cc(NC(=O)c4ccc(C(=O)Nc5cn(C)c(C(=O)Nc6cn(C)c(C(=O)Nc7cn(C)c(C(=O)NCCCN(C)C)n7)n6)n5)cc4)cn3C)cn2C)cn1C | > 50.1 | > 50.1 | 

Row | SMILES | EC50 [µM] | IC50 [µM] | outcome
67 | CC(=O)OC1CC2OC(Cc3ccccc32)O1 (stereo not drawn) | > 200 | > 200 | 
68 | Cc1c([N+](=O)[O-])oc2c1C(=O)NCCC2 | > 437 | 70.8 | 
69 | COc1ccc2c(c1)CCC/C2=N\NS(=O)(=O)c1c(C)cc(C)cc1C | > 200 | 33.1 | 
70 | N#C/C(=C\c1ccc(Cl)cc1)c1ccccc1 | > 200 | 32.4 | 
71 | CN(C)c1cc(CNCCSC(C)(C)C)nc(CNCCSC(C)(C)C)c1 | > 200 | 4.57 | 
72 | C1=CC(=NN=P(c2ccccc2)(c2ccccc2)c2ccccc2)C=C1 |  |  | inactive
73 | CCCCCCCCCC=C(c1cc(Cl)c(OC)c(C(=O)O)c1)c1cc(Cl)c(OC)c(C(=O)O)c1 | 263 | 316 | 
74 | Cc1cc(S(=O)(=O)Nc2n[nH]c(Nc3ccc4ccccc4c3)n2)c(S)cc1Cl | > 200 | 49 | 
75 | CC1S(=O)(=O)OCCOS1(=O)=O | > 1150 | 123 | 
76 | COc1ccc(C2=C(Cl)c3cc(OC)c(OC)cc3C2Cl)cc1 (stereo not drawn) |  |  | inactive
77 | O=C(Nc1ccc(S(=O)(=O)Nc2ccc(N=Nc3ccc(S(=O)(=O)Nc4nccs4)cc3)cc2)cc1)C(N1CC1)(N1CC1)N1CC1 | > 200 | 129 | 
78 | CCOC(=O)C(C(=O)OCC)C1(c2ccccc2)OC(=O)c2ccccc21 (stereo not drawn) |  |  | inactive
79 | N#CCCN(CCC#N)c1ccc(/C=C2/N=C(COc3ccccc3)N(c3ccc(Cl)cc3)C2=O)cc1 | > 37.2 | > 37.2 | 
80 | NC(N)=NS(=O)(=O)c1ccc(Nc2c3ccccc3nc3c(C(=O)N4CCN(CCO)CC4)cccc23)cc1 | > 40.7 | > 40.7 | 
81 | CCOC(=O)Cc1csc2nc(-c3ccccc3)nn12 | > 200 | 132 | 
82 | CCCCC(C(=O)C(=O)Nc1ccccc1CC)C(=O)C(C)C (stereo not drawn) |  |  | inactive
83 | CN=C(N)c1ncn(C2OC(CO)C(O)C2O)n1 (stereo not drawn) |  |  | inactive
84 | OCC1OC2OC3C(CO)OC(OC4C(CO)OC(OC5C(CO)OC(OC6C(CO)OC(OC7C(CO)OC(OC1C(O)C2O)C(O)C7O)C(O)C6O)C(O)C5O)C(O)C4O)C(O)C3O (stereo not drawn) (tested in a mixture with another compound) | > 200 | > 200 | 
85 | CCc1c(Sc2ccccn2)n(COCc2ccccc2)c(=O)[nH]c1=O | 91.2 | 339 | 
